Reference: the NIST ThermoML archive (doi:10.1016/j.jct.2016.05.006)
Where “and” joins values, the source holds several entries; their conditions need not be identical. Identical values can stand only once. ± gives the expanded uncertainty stated by the source.

Settings: Liquid, Vibrating tube method

OCC(O)CO [glycerol]
mass density
Settings	298.15 K	303.15 K	308.15 K	313.15 K	318.15 K	328.15 K	338.15 K	348.15 K
100 kPa	1258.4 ± 1.7 kg/m3 and 1259.1 ± 1.7 kg/m3	1255.7 ± 1.7 kg/m3	1252.9 ± 1.7 kg/m3 and 1253 ± 1.7 kg/m3	1250.1 ± 1.7 kg/m3	1247 ± 1.7 kg/m3	1240.9 ± 1.7 kg/m3	1234.8 ± 1.7 kg/m3	1228.7 ± 1.7 kg/m3
5000 kPa	1260.7 ± 1.7 kg/m3 and 1260.6 ± 1.7 kg/m3	1257.8 ± 1.7 kg/m3	1254.9 ± 1.7 kg/m3 and 1254.6 ± 1.7 kg/m3	1251.8 ± 1.7 kg/m3	1248.5 ± 1.7 kg/m3	1242.5 ± 1.7 kg/m3	1236.4 ± 1.7 kg/m3	1230.4 ± 1.7 kg/m3
10000 kPa	1262.3 ± 1.7 kg/m3 and 1262.1 ± 1.7 kg/m3	1259.3 ± 1.7 kg/m3	1256.3 ± 1.7 kg/m3 and 1256.1 ± 1.7 kg/m3	1253.4 ± 1.7 kg/m3	1250.1 ± 1.7 kg/m3	1244.1 ± 1.7 kg/m3	1238.1 ± 1.7 kg/m3	1232.1 ± 1.7 kg/m3
15000 kPa	1263.7 ± 1.8 kg/m3 and 1263.6 ± 1.8 kg/m3	1260.8 ± 1.8 kg/m3	1257.9 ± 1.8 kg/m3 and 1257.6 ± 1.8 kg/m3	1254.9 ± 1.8 kg/m3	1251.6 ± 1.8 kg/m3	1245.6 ± 1.7 kg/m3	1239.6 ± 1.7 kg/m3	1233.6 ± 1.7 kg/m3
20000 kPa	1265.2 ± 1.8 kg/m3 and 1265.1 ± 1.8 kg/m3	1262.3 ± 1.8 kg/m3	1259.4 ± 1.8 kg/m3 and 1259.1 ± 1.8 kg/m3	1256.4 ± 1.8 kg/m3	1253.2 ± 1.8 kg/m3	1247.2 ± 1.8 kg/m3	1241.3 ± 1.8 kg/m3	1235.3 ± 1.8 kg/m3
25000 kPa	1266.6 ± 1.8 kg/m3 and 1266.5 ± 1.8 kg/m3	1263.7 ± 1.8 kg/m3	1260.8 ± 1.8 kg/m3 and 1260.6 ± 1.8 kg/m3	1257.9 ± 1.8 kg/m3	1254.7 ± 1.8 kg/m3	1248.8 ± 1.8 kg/m3	1242.9 ± 1.8 kg/m3	1237.1 ± 1.8 kg/m3
